US11300568B2, “Methods for the diagnosis and treatment of gastrointestinal stromal tumors” (INSERM (INSTITUT NATIONAL DE LA SANTE ET DE LA RECHERCHE …, priority 2016, dated 2022)
Counter-ions that a name gives are not always drawn.

How the values were obtained:
[1] = test system: LIX1 transcript levels in GIST882 cells; experiment: LIX1 expression by RT-qPCR in GIST882 cells; type: cell-based, human; details: 1 μM, 6 h, 24 h and 48 h, vs DMSO control
Experimental: FIG. 1: LIX1 is expressed in GISTs. (A) LIX1 mRNA expression and regulation in the GIST882 cell line. (a) Semi-quantitative RT-PCR analysis of LIX1 transcript level in 131N1 (astrocytoma cells), PC3 (prostate cancer cells), HeLa, and GIST882 cells. Loading was verified by glyceraldehyde-3-phosphate dehydrogenase (GAPDH) expression. (b) Analysis of LIX1 expression by RT-qPCR in GIST882 cells upon incubation with DMSO alone (control) or with 7.5 μM of Akti (inhibitor of AKT) for 6 h, 24 h and 48 h. Normalized expression levels were converted to fold changes. *P<0.05; **P<0.01. (c) Analysis of LIX1 expression by RT-qPCR in GIST882 cells upon incubation with DMSO alone (control) or with 1 μM of imatinib mesylate (KIT inhibitor) for 6 h, 24 h and 48 h. […] (b) Relapse-free survival from initial imatinib mesylate treatment in group 1 presenting low level of LIX1 compared with group 2 presenting high level of LIX1 individuals with GIST, assessed in a univariate analysis using the Kaplan-Meier method. […]
Total RNA was extracted from stomachs or cell cultures with the HighPure RNA Isolation kit (Roche). […] Each sample was analysed in three independent experiments done in triplicate. Expression levels were determined with the LightCycler analysis software (version 3.5) relative to standard curves. […] Relative mRNA expression was calculated using the 2^−ΔΔCT method. […]

[2] = test system: LIX1 expression in GIST-T1 cells; experiment: LIX1 expression by RT-qPCR in GIST-T1 cells; type: cell-based, human; details: 0.5 μM, 6 h, 24 h and 48 h, vs DMSO control
Experimental: Analysis of LIX1 expression by RT-qPCR in GIST-T1 cells upon incubation with DMSO alone (control) or with 0.5 μM of imatinib mesylate (KIT inhibitor) for 6 h, 24 h and 48 h. Normalized expression levels were converted to fold changes. **P<0.01; ***P<0.001.
Resistance to tyrosine kinase inhibitors such as imatinib is increasing in GISTs and complete remissions are rare, highlighting the necessity to identify additional therapeutic targets. The inventors investigated the role of LIX1 in secondary imatinib-resistant GISTs using GIST-T1 cells, a primary gastric GIST cell line sensitive to Imatinib treatment that harbors hetereygous deletion in KIT gene with constitutive KIT signaling pathway.

[3] = test system: GIST; details: after 5 years; increased from 30% after 1 year; cited from earlier work
[4] = test system: YAP1 activity (YAP-TEAD interaction); experiment: RT-qPCR of YAP1 and its targets CTGF and CYR61 in LIX1-expressing DF-1 cells; type: cell-based, chicken; details: low density, 1 μM for 20 hours
Experimental: (§1) The chicken DF-1 fibroblast cell line was cultured as previously described. Cell growth in DF-1 cultures was assessed using the Muse Count and Viability reagent following the manufacturer's specifications (Muse Cell Analyzer-Millipore). DF-1 cells were plated on plastic at 2000 cells/cm^2 to obtain low-density cultures and 6000 cells/cm^2 to obtain high-density cultures. Verteporfin (Sellekchem) was used applied to DF-1 cells for 20 hours at a final concentration of 1 μM.
Total RNA was extracted from stomachs or cell cultures with the HighPure RNA Isolation kit (Roche). Reverse transcription was performed using the Verso cDNA synthesis kit (Thermo Scientific) and RT-qPCR was performed using LightCycler technology (Roche Diagnostics). PCR primers were designed using the LightCycler Probe Design 2.0 software. Each sample was analysed in three independent experiments done in triplicate. Expression levels were determined with the LightCycler analysis software (version 3.5) relative to standard curves. Data were represented as the mean level of gene expression relative to the expression of the reference genes UBIQUITIN or GAPDH. Relative mRNA expression was calculated using the 2^−ΔΔCT method.
DF-1 chicken fibroblasts were infected with replication-competent RCAS retroviruses and cultured for 5 days to ensure homogeneous expression. […]

[5] = test system: DF-1 fibroblast cell line; experiment: Cell proliferation of LIX1-expressing DF-1 cultures (Muse Count and Viability); type: cell-based, chicken; details: LIX1-expressing DF-1 cells, low density, 1 μM for 20 hours
Experimental: as §1
(§2) DF-1 chicken fibroblasts were infected with replication-competent RCAS retroviruses and cultured for 5 days to ensure homogeneous expression. […] This greater expression was associated with higher transcript levels of YAP1 pro-proliferation target genes CTGF and CYR61 and an increase in cell proliferation. […] After 3 days in culture, LIX1-expressing cells had grown faster than control cells. However, although YAP1 expression in LIX1-expressing cells remained higher than in controls, the levels of CTGF and CYR61 transcripts were similar to control levels.

[6] = test system: DF-1 fibroblast cell line; experiment: Analysis of cell death in DF-1 cultures; type: cell-based, chicken; details: 1 μM for 20 hours
Experimental: as §1, §2

Cc1ccc(NC(=O)c2ccc(CN3CCN(C)CC3)cc2)cc1Nc1nccc(-c2cccnc2)n1 [imatinib mesylate]
LIX1 transcript levels [1]: strong and efficient inhibition of LIX1 transcript levels | LIX1 expression [2]: upregulated | GIST patient survival [3]: 50%

verteporfin
YAP1 expression [4]: upregulation of YAP1 was still observed | levels of CTGF and CYR61 transcripts [4]: comparable with control cells | rates of proliferation [5]: comparable with control cells | cytotoxic effect (cell death) [6]: not due to a cytotoxic effect
